Measurements as given in patent US12344610B2, “APOL1 inhibitors and methods of use” (Maze Therapeutics, Inc., priority 2022, dated 2025).

Key:
Format in all cases: cell-based
[1] = system: HEK293 clonal cell line overexpressing APOL1 G1; assay: APOL1 G1 HEK293 cell rescue assay (Example B3); conditions: Homo sapiens, HEK293, HEK293 clonal line overexpressing APOL1 G1; geometric mean of at least 2 runs; † = single run; ¥ = concentration at 50% rescue estimated (no sigmoidal curve)
In short: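 HEK293 clonal line overexpressing APOL1 G1; EC50 is half-maximal reversal of APOL1-induced cell death. Values are the geometric mean of ≥2 runs on separate days, each run the average of duplicate wells. Where no sigmoidal curve could be fitted, the concentration giving 50% rescue was estimated.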

[2] = system: HEK293 cells overexpressing APOL1 G2; assay: APOL1 G2 HEK293 cell rescue assay (reversal of cell death caused by overexpression of APOL1); conditions: Homo sapiens, HEK293, HEK293 overexpressing APOL1 G2; geometric mean of at least 2 assay runs; † = single assay run
In short: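 EC50 is the half-maximal effective concentration for reversing cell death driven by APOL1 G2 overexpression in HEK293 cells. Reported as geometric mean of at least 2 runs on separate days, each run averaging duplicate wells per plate; some values from a single run.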

APOL1 G2 = target: T1, APOL1 G2 (Homo sapiens, UniProt O14791, DEL388-389); assay: APOL1-mediated calcium transport (calcium influx) assay, HEK T-REx/GCaMP6f/APOL1 G2 K6.3 cells, FLIPR TETRA; conditions: prevention of calcium influx; geometric mean of at least 2 assay runs; † = average of a technical replicate from a single assay run
T1 construct: expressed in transfected cells; host or cells: HEK293 T-REx clonal line stably expressing GCaMP6f (HEK T-REx/GCaMP6f/APOL1 G2 K6.3), doxycycline induced
T1 sequence (O14791 with tags, fused parts or gaps DEL388-389): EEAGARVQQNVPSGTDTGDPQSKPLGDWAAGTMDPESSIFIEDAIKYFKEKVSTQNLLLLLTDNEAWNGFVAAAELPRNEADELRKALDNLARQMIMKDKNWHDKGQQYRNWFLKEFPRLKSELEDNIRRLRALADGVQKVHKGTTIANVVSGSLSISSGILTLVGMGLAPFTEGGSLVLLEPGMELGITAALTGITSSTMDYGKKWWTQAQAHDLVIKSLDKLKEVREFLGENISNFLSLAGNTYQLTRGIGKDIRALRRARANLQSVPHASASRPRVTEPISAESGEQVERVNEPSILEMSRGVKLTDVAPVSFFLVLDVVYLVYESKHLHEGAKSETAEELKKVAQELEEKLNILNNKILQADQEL
In short: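 A HEK293 T-REx clone stably expressing GCaMP6f had APOL1 G2 induced with doxycycline (20 ng/mL solution added) for 6 h. Cells were then washed into Ca2+-free Tyrode's buffer (pH 7.4) and preincubated with compounds (duplicate 8-point) for 10 min at room temperature. Ca2+ injection to 5 mM final produced FLIPR GCaMP fluorescence, giving AC50 for influx inhibition (geometric mean, ≥2 runs).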

SMILES	EC50 [1] [nM]	EC50 [2] [nM]	AC50 (APOL1 G2) [nM]
CC(COc1ccc2c(c1)CCC(=O)N2C)N1CCC2(CC1)C(=O)Nc1ccc(C#N)cc12 (stereo not drawn) [Compound 202, 1′-{1-[(1-methyl-2-oxo-1,2,3,4-tetrahydroquinolin-6-yl)oxy]propan-2-yl}-2-oxo-1,2-dihydrospiro[indole-3,4′-piperidine]-5-carbonitrile]	2550	315	1720
CS(=O)(=O)c1ccc(OCCN2CCC3(CC2)C(=O)Nc2ccc(Cl)cc23)cc1C(F)CF (stereo not drawn) [Compound 217, 5-chloro-1′-{2-[3-(1,2-difluoroethyl)-4-methanesulfonylphenoxy]ethyl}-1,2-dihydrospiro[indole-3,4′-piperidin]-2-one]	108	32.6	866
CS(=O)(=O)c1ccc(OCCN2CCC3(CC2)C(=O)Nc2ccc(C#N)cc23)cc1C(F)CF (stereo not drawn) [Compound 220, 1′-{2-[3-(1,2-difluoroethyl)-4-methanesulfonyl-phenoxy]ethyl}-2-oxo-1,2-dihydrospiro [indole-3,4′-piperidine]-5-carbonitrile]	301	53	679
CS(=O)(=O)c1ccc(OCCN2CCC3(CC2)C(=O)Nc2ccc(Cl)cc23)cc1C1COC1 [Compound 223, 5-chloro-1′-{2-[4-methanesulfonyl-3-(oxetan-3-yl)phenoxy]ethyl}-1,2-dihydrospiro[indole-3,4′-piperidin]-2-one]	326	97.8	311
CNC(=O)N1CCc2cc(OCCN3CCC4(CC3)C(=O)Nc3ccc(C#N)cc34)ccc2C1 [Compound 246, 6-(2-{5-cyano-2-oxo-1,2-dihydrospiro[indole-3,4′-piperidin]-1′-yl}ethoxy)-N-methyl-1,2,3,4-tetrahydroisoquinoline-2-carboxamide]	4860	562	1340
N#Cc1ccc2c(c1)C1(CCN(CCOc3ccc(C4(C(=O)N5CC(F)C5)COC4)cc3)CC1)C(=O)N2 [Compound 252, 1′-(2-{4-[3-(3-fluoroazetidine-1-carbonyl)oxetan-3-yl]phenoxy}ethyl)-2-oxo-1,2-dihydrospiro[indole-3,4′-piperidine]-5-carbonitrile]	~1800	471	1350
N#Cc1ccc2c(c1)C1(CCN(CCOc3ccc(C4(C(=O)N5CCC5)COC4)cc3)CC1)C(=O)N2 [Compound 253, 1′-(2-{4-[3-(azetidine-1-carbonyl)oxetan-3-yl]phenoxy}ethyl)-2-oxo-1,2-dihydrospiro[indole-3,4′-piperidine]-5-carbonitrile]	~4400	608	1220
O=C1Cc2cc(OCCN3CCC4(CC3)C(=O)Nc3ccc(Cl)cc34)cc(F)c2N1 [Compound 256, 5-chloro-1′-{2-[(7-fluoro-2-oxo-2,3-dihydro-1H-indol-5-yl)oxy]ethyl}-1,2-dihydrospiro[indole-3,4′-piperidin]-2-one]	116	44.6	261
CC(C)(C(N)=O)c1ccc(OCCN2CCC3(CC2)C(=O)Nc2ccc(C#N)cc23)cc1 [Compound 257, 2-[4-(2-{5-cyano-2-oxo-1,2-dihydrospiro[indole-3,4′-piperidin]-1′-yl}ethoxy)phenyl]-2-methylpropanamide]	~1000	256	974
NC(=O)c1ncc(OCCN2CCC3(CC2)C(=O)Nc2ccc(Cl)cc23)cn1 [Compound 258, 5-(2-{5-chloro-2-oxo-1,2-dihydrospiro[indole-3,4′-piperidin]-1′-yl}ethoxy)pyrimidine-2-carboxamide]	~1300	444	1050
CC(COc1ccc(C2(S(C)(=O)=O)COC2)cc1)N1CCC2(CC1)C(=O)Nc1ccc(C#N)cc12 (stereo not drawn) [Compound 262, 1′-{1-[4-(3-methanesulfonyloxetan-3-yl)phenoxy]propan-2-yl}-2-oxo-1,2-dihydrospiro[indole-3,4′-piperidine]-5-carbonitrile]	1780	299	2390
CN(C)c1ncc(OCCN2CCC3(CC2)C(=O)Nc2ccc(Cl)cc23)cn1 [Compound 303, 5-chloro-1′-(2-{[2-(dimethylamino)pyrimidin-5-yl]oxy}ethyl)-1,2-dihydrospiro[indole-3,4′-piperidin]-2-one]	351	156	822
O=C1Nc2ccc(Cl)cc2C12CCN(CCOc1cnc(N3CC4(C3)CS(=O)(=O)C4)nc1)CC2 [Compound 304, 6-[5-(2-{5-chloro-2-oxo-1,2-dihydrospiro[indole-3,4′-piperidin]-1′-yl}ethoxy)pyrimidin-2-yl]-2λ^6-thia-6-azaspiro[3.3]heptane-2,2-dione]	286	134	1010
CC1(O)CC(N2C(=O)CCc3cc(OCCN4CCC5(CC4)C(=O)Nc4ccc(Cl)cc45)cnc32)C1 (stereo not drawn) [Compound 315, 5-chloro-1′-(2-{[8-(3-hydroxy-3-methylcyclobutyl)-7-oxo-5,6,7,8-tetrahydro-1,8-naphthyridin-3-yl]oxy}ethyl)-1,2-dihydrospiro[indole-3,4′-piperidin]-2-one]	86	25.7	330
O=C1CCc2cc(OCCN3CCC4(CC3)C(=O)Nc3ccc(C(F)F)cc34)cnc2N1C1CC(CO)C1 (stereo not drawn) [Compound 316, 5-(difluoromethyl)-1′-[2-({8-[3-(hydroxymethyl)cyclobutyl]-7-oxo-5,6,7,8-tetrahydro-1,8-naphthyridin-3-yl}oxy)ethyl]-1,2-dihydrospiro[indole-3,4′-piperidin]-2-one]	99.4	32.7	1150
CC1(O)CC(CN2C(=O)CCc3cc(OCCN4CCC5(CC4)C(=O)Nc4ccc(C(F)F)cc45)cnc32)C1 (stereo not drawn) [Compound 320, 5-(difluoromethyl)-1′-[2-({8-[(3-hydroxy-3-methylcyclobutyl)methyl]-7-oxo-5,6,7,8-tetrahydro-1,8-naphthyridin-3-yl}oxy)ethyl]-1,2-dihydrospiro[indole-3,4′-piperidin]-2-one]	53.9	22.1	787
[2H]C([2H])([2H])N1C(=O)C2(CCN(CCOc3ccc(C4CCN(S(C)(=O)=O)CC4)cc3)CC2)c2cc(Cl)ccc21 [Compound 412, 5-chloro-1′-{2-[4-(1-methanesulfonylpiperidin-4-yl)phenoxy]ethyl}-1-(^2H3)methyl-1,2-dihydrospiro[indole-3,4′-piperidin]-2-one]	70.7	45.3	2900
[2H]C([2H])([2H])N1C(=O)C2(CCN(CCOc3ccc(S(C)(=O)=NC)c(C(F)(F)F)c3)CC2)c2cc(Cl)ccc21 (stereo not drawn) [Compound 413, 5-chloro-1-(^2H3)methyl-1′-(2-{4-[methyl(methylimino)oxo-λ^6-sulfanyl]-3-(trifluoromethyl)phenoxy)ethyl)-1,2-dihydrospiro[indole-3,4′-piperidin]-2-one]	208	60.3	251
[2H]C([2H])([2H])N1C(=O)C2(CCN(CCOc3ccc(C4(S(=O)(=O)C(C)C)COC4)cc3)CC2)c2cc(Cl)ccc21 [Compound 414, 5-chloro-1-(^2H3)methyl-1′-(2-{4-[3-(propane-2-sulfonyl)oxetan-3-yl]phenoxy}ethyl)-1,2-dihydrospiro[indole-3,4′-piperidin]-2-one]	110	36.7	347
[2H]C([2H])([2H])N1C(=O)C2(CCN(CCOc3ccc(C4(S(C)(=O)=O)CCC4)cc3)CC2)c2cc(Cl)ccc21 [Compound 415, 5-chloro-1′-{2-[4-(1-methanesulfonylcyclobutyl)phenoxy]ethyl}-1-(^2H3)methyl-1,2-dihydrospiro[indole-3,4′-piperidin]-2-one]	69.2	20.3	319
[2H]C([2H])([2H])N1C(=O)C2(CCN(CCOc3ccc4c(c3)CN(C)C4=O)CC2)c2cc(Cl)ccc21 [Compound 416, 5-chloro-1-(^2H3)methyl-1′-{2-[(2-methyl-1-oxo-2,3-dihydro-1H-isoindol-5-yl)oxy]ethyl}-1,2-dihydrospiro[indole-3,4′-piperidin]-2-one]	382	169	449
